The test system of one data set is Meloidogyne incognita. Put plainly: Meloidogyne incognita test (MELGIN), gall formation on salad seedlings. It is filed as in vivo. Conditions: application rate 20 ppm, after 14 days. The protocol:
Meioidovnve incomita—Test (MELGIN)
Solvent: 125.0 parts by weight of acetone
To produce a suitable preparation of active compound, 1 part by weight of active compound is mixed with the stated amount of solvent, and the concentrate is diluted with water to the desired concentration.
Vessels are filled with sand, a solution of the active ingredient, a suspension containing eggs and larvae of the southern root-knot nematode (Meloidogyne incognita) and salad seeds. The salad seeds germinate and the seedlings grow. Galls develop in the roots.
After 14 days the nematicidal activity is determined on the basis of the percentage of gall formation. 100% means that no galls were found; 0% means the number of galls found on the roots of the treated plants was equal to that in untreated control plants.

The nature of data set [1]: Measurement of log P values by HPLC on reversed phase columns (methods [a] pH 2.3, [b] pH 2.7, [c] pH 7.8). It is filed as physicochemical. Particulars: HPLC reversed phase. The method in brief: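 Retention times were converted to log P by linear interpolation between linear alkan-2-one standards (3 to 16 carbons) of known log P. Eluents, each with 10% to 95% acetonitrile gradient: phosphoric acid 0.1% at pH 2.3 [a]; formic acid 0.1% at pH 2.7, LC-MS [b]; ammonium hydrogen carbonate 0.001 molar at pH 7.8, LC-MS [c].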

Results on 17 compounds are retold here after patent US20160075653A1, “NEMATICIDAL N-(PHENYLCYCLOALKYL)CARBOXAMIDES AND N-(PHENYLCYCLOALKYL)THIOCARBOXAMIDES” (BAYER CROPSCIENCE AKTIENGESELLSCHAFT, priority 2013, published 2016).

For `O=C(N[C@@H]1CC[C@@H]1c1ccc(F)cc1C(F)(F)F)c1nccnc1Cl` (relative stereo) [Compound 516], in the data set on Meloidogyne incognita, the “nematicidal activity (percentage of gall formation; 100% = no galls)” value is listed as 100%. Also, the logP in data set [1] (method [b] (pH 2.7)) is 2.89^[b].

As to `O=C(N[C@@H]1CC[C@@H]1c1ccc(F)cc1C(F)(F)F)c1ccccc1[N+](=O)[O-]` (relative stereo) [Compound 522], the “nematicidal activity (percentage of gall formation; 100% = no galls)” value in the data set on Meloidogyne incognita is 90%. The logP in data set [1] (method [b] (pH 2.7)) is 3.04^[b].

As for `O=C(N[C@@H]1CC[C@@H]1c1ccc(F)cc1C(F)(F)F)c1cccnc1` (relative stereo) [Compound 523], the “nematicidal activity (percentage of gall formation; 100% = no galls)” value in the data set with Meloidogyne incognita was found to be 90%. The logP in data set [1] (method [b] (pH 2.7)) is 2.18^[b].

For `O=C(N[C@@H]1CC[C@@H]1c1cc(F)ccc1C(F)(F)F)c1ccccc1Cl` (relative stereo) [Compound 528], the “nematicidal activity (percentage of gall formation; 100% = no galls)” value in the data set with Meloidogyne incognita came out at 100%. Besides, in data set [1] (method [b] (pH 2.7)), the logP was 3.34^[b].

`O=C(N[C@@H]1C[C@@H]1c1ccc(Cl)cc1)c1nccnc1C(F)(F)F` (relative stereo) [Compound 532]: the “nematicidal activity (percentage of gall formation; 100% = no galls)” value with Meloidogyne incognita came out at 100%. For the same compound, the values for the logP in data set [1] (method [b] (pH 2.7)) and in data set [1] (method [c] pH 7.8) were 2.68^[b] and 2.65^[c];, respectively.

In the case of `O=C(N[C@@H]1CC[C@@H]1c1c(F)cccc1C(F)(F)F)c1ncccc1Cl` (relative stereo) [Compound 537], in the data set with Meloidogyne incognita, the “nematicidal activity (percentage of gall formation; 100% = no galls)” value is listed as 100%. In data set [1] (method [b] (pH 2.7)), the logP was 2.92^[b].

Consider `O=C(N[C@@H]1CC[C@@H]1c1ccccc1Cl)c1ccccc1[N+](=O)[O-]` (relative stereo) [Compound 538], for which the “nematicidal activity (percentage of gall formation; 100% = no galls)” value with Meloidogyne incognita stood at 100%. Moreover, the logP in data set [1] (method [b] (pH 2.7)) is 2.71^[b].

With `O=C(N[C@@H]1CC[C@@H]1c1cc(F)ccc1C(F)(F)F)c1ccccc1[N+](=O)[O-]` (relative stereo) [Compound 540], the “nematicidal activity (percentage of gall formation; 100% = no galls)” value in the data set on Meloidogyne incognita is 100%. Also, in data set [1] (method [b] (pH 2.7)), the logP is 3.07^[b].

As to `O=C(N[C@@H]1CC[C@@H]1c1cc(F)ccc1C(F)(F)F)c1ccccc1I` (relative stereo) [Compound 541], in the data set with Meloidogyne incognita, the “nematicidal activity (percentage of gall formation; 100% = no galls)” value stood at 100%. In addition, the logP in data set [1] (method [b] (pH 2.7)) was 3.52^[b].

`O=C(N[C@@H]1CC[C@@H]1c1c(F)cccc1C(F)(F)F)c1ccccc1I` (relative stereo) [Compound 542]: the “nematicidal activity (percentage of gall formation; 100% = no galls)” value in the data set with Meloidogyne incognita is 100%. Further, the logP in data set [1] (method [b] (pH 2.7)) is 3.96^[b].

Consider `O=C(N[C@@H]1CC[C@@H]1c1c(F)cccc1C(F)(F)F)c1ncc(C(F)(F)F)cc1Cl` (relative stereo) [Compound 543], for which, in the data set on Meloidogyne incognita, the “nematicidal activity (percentage of gall formation; 100% = no galls)” value is 90%. Moreover, the logP in data set [1] (method [b] (pH 2.7)) is 4.13^[b].

For `O=C(N[C@@H]1CC[C@H]1c1ccccc1Cl)c1sccc1I` (relative stereo) [Compound 544], the “nematicidal activity (percentage of gall formation; 100% = no galls)” value in the data set on Meloidogyne incognita is recorded as 90%. Besides, the logP in data set [1] (method [b] (pH 2.7)) is 3.86^[b].

As for `Cc1nc(C(F)(F)F)c(C(=O)N[C@@H]2CC[C@@H]2c2ccccc2Cl)s1` (relative stereo) [Compound 545], the “nematicidal activity (percentage of gall formation; 100% = no galls)” value with Meloidogyne incognita is 100%. Besides, the logP in data set [1] (method [b] (pH 2.7)) was 3.15^[b].

`O=C(N[C@@H]1CC[C@H]1c1ccccc1Cl)c1nccnc1Cl` (relative stereo) [Compound 548]: the “nematicidal activity (percentage of gall formation; 100% = no galls)” value in the data set on Meloidogyne incognita is 100%. Further, the logP in data set [1] (method [b] (pH 2.7)) was 2.81^[b].

Take `O=C(N[C@@H]1CC[C@@H]1c1cc(F)ccc1C(F)(F)F)c1c(F)cccc1F` (relative stereo) [Compound 549]: the “nematicidal activity (percentage of gall formation; 100% = no galls)” value in the data set on Meloidogyne incognita was 100%. Besides, the logP in data set [1] (method [b] (pH 2.7)) was 3.22^[b].

With `O=C(N[C@@H]1CC[C@@H]1c1cc(F)ccc1C(F)(F)F)c1ccccc1` (relative stereo) [Compound 550], in the data set on Meloidogyne incognita, the “nematicidal activity (percentage of gall formation; 100% = no galls)” value came to 100%. For the same compound, the logP in data set [1] (method [b] (pH 2.7)) is 3.15^[b].

In the case of `O=C(N[C@@H]1CC[C@@H]1c1c(F)cccc1C(F)(F)F)c1ccccc1` (relative stereo) [Compound 551], the “nematicidal activity (percentage of gall formation; 100% = no galls)” value in the data set on Meloidogyne incognita amounted to 100%. For the same compound, the logP in data set [1] (method [b] (pH 2.7)) is 3.23^[b].
